The source of these data is ChEMBL document CHEMBL4118170, “Alkylsulfanyl analogs as potent α2δ ligands” (Bioorg Med Chem Lett, 2018).

For data set [1], the target named is Voltage-dependent calcium channel subunit alpha-2/delta-1 (Homo sapiens) (UniProt P54289). The experiment in a line: Displacement of [3H]gabapentin from human voltage-gated Ca2+ channel alpha2delta1 subunit expressed in HEK293A cell membranes after 30 mins by liquid scintillation counting method.
In data set [2] the test system is Mus musculus. The experiment in a line: Analgesic activity in db/db mouse mechanical hyperalgesia model assessed as reversal of mechanical hyperalgesia at 100 mg/kg, po pretreated for 2 hrs by Von Frey test relative to control. Format: functional.
The nature of data set [3]: Clearance in mouse at 10 mg/kg, po or 5 mg/kg, iv. Format: ADME, organism-based. To be noted: in vivo.
A short description of data set [4]: Oral bioavailability in mouse at 10 mg/kg. The format is ADME, organism-based. To be noted: in vivo.
Data set [5] relates to Mus musculus. The experiment in a line: AUC in mouse at 10 mg/kg, po or 5 mg/kg, iv. Format: ADME, organism-based. To be noted: in vivo.
Data set [6] can be described thus: Cmax in mouse at 10 mg/kg, po or 5 mg/kg, iv. The format is ADME, organism-based. To be noted: in vivo.
Data set [7] is described as follows: Half life in mouse at 10 mg/kg, po or 5 mg/kg, iv. To be noted: in vivo. Format: ADME, organism-based.
The test system of data set [8] is Mus musculus. The experiment in a line: Effect on motor coordination in mouse at 100 mg/kg, po measured over 120 secs at 2 hrs post drug administration by rota rod test. Format: ADME, organism-based. To be noted: in vivo. In general terms: In the rotarod test animals must keep their balance on a rotating rod.
The subject of data set [9] is Rattus norvegicus. The experiment in a line: Analgesic activity in STZ-induced diabetic rat model assessed as pain threshold AUC (0 to 8 hrs) at 30 mg/kg, po by Von Frey test. The format is functional, organism-based. Also noted: time < 8 hr, dose 30 mg/kg.
In data set [10] the test system is Rattus norvegicus. The experiment in a line: Analgesic activity in STZ-induced diabetic rat model assessed as pain threshold AUC (0 to 8 hrs) at 10 mg/kg, po by Von Frey test. The format is functional, organism-based. The arrangement: dose 10 mg/kg, time < 8 hr.
The test system of data set [11] is Mus musculus. The experiment in a line: Effect on motor coordination in mouse at 30 mg/kg, po measured over 120 secs at 2 hrs post drug administration by rota rod test. To be noted: in vivo. The format is ADME, organism-based.
The subject of data set [12] is Rattus norvegicus. The experiment in a line: Analgesic activity in STZ-induced diabetic rat model assessed as pain threshold AUC (0 to 8 hrs) at 50 mg/kg, po by Von Frey test. Format: functional, organism-based. The arrangement: time < 8 hr, dose 50 mg/kg.

Voltage-dependent calcium channel subunit alpha-2/delta-1 (Homo sapiens), sequence (P54289 25-956 limits assumed): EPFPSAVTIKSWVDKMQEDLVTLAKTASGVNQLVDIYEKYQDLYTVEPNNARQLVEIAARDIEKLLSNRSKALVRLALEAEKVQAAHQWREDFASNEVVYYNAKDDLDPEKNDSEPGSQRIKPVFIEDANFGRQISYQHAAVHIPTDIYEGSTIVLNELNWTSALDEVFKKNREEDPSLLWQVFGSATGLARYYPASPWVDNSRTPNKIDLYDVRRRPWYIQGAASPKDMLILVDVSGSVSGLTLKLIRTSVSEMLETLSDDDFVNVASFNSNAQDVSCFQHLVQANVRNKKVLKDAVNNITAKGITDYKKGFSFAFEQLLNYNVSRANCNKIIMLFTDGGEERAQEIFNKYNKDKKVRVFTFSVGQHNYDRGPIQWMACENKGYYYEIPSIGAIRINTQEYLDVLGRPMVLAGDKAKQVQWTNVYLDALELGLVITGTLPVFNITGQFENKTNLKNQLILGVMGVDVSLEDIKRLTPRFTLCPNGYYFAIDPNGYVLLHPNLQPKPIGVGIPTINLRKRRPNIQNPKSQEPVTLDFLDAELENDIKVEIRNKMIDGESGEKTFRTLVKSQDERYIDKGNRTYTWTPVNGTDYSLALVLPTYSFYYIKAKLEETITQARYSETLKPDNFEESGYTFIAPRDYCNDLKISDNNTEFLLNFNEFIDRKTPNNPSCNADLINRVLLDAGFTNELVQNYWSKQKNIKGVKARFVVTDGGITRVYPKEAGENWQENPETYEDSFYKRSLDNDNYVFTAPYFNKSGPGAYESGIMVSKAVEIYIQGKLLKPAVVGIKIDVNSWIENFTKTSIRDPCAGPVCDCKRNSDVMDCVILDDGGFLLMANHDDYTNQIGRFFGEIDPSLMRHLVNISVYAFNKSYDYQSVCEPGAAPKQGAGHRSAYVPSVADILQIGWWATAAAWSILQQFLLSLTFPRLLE
Voltage-dependent calcium channel subunit alpha-2/delta-1 (Homo sapiens), sequence (P54289 957-1103 limits assumed): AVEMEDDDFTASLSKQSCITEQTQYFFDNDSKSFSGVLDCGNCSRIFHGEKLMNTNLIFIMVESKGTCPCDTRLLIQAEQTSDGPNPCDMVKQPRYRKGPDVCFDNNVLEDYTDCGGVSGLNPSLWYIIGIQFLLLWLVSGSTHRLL

As for `CSC(C)CC(CN)CC(=O)O` (mixture of isomers), in [1], the displacement potency (concentration) was 170 nM. For the same compound, the Activity in the data set on Mus musculus [2] came out at 64%.

In data set [3], `CS[C@H](C)C[C@@H](CN)CC(=O)O` showed a clearance of 31.7 mL/min/kg. This compound displayed a bioavailability in data set [4] of 100%. In addition, the displacement potency (concentration) in data set [1] is 720 nM. For the same compound, the AUC in the data set on Mus musculus [5] was 5800 ng·h/mL. The compound further had a Cmax in data set [6] of 3590 ng/mL. Also, the Activity in the data set on Mus musculus [2] is listed as 3%. This compound gave a half-life in data set [7] of 4.42 h.

For `COCC(CN)CC(=O)O` (racemic), the displacement potency (concentration) in [1] is 3200 nM.

Take `CCSC(C)CC(CN)CC(=O)O` (centres undefined): in data set [1], the displacement potency (concentration) came out at 200 nM. Moreover, the Activity in the data set on Mus musculus [2] is 43%.

Turning to `CSC(C)C(CN)CC(=O)O` (centres undefined), the displacement potency (concentration) in data set [1] worked out at 240 nM. Also, the Activity in the data set on Mus musculus [2] amounted to 9%.

`CC(C)SCC(CN)CC(=O)O` (centres undefined): the displacement potency (concentration) in data set [1] was found to be 19000 nM.

For `COCCC(CN)CC(=O)O` (racemic), the displacement potency (concentration) in data set [1] was determined as 240 nM. The Activity in the data set with Mus musculus [2] is reported as 17%.

For `CCSCC(CN)CC(=O)O` (racemic), in data set [1], the displacement potency (concentration) was 1900 nM.

With `COC(C)CC(CN)CC(=O)O` (centres undefined), in data set [1], the displacement potency (concentration) came to 410 nM. In addition, in the data set with Mus musculus [2], the Activity was found to be 4%.

With `CSCCC(CN)CC(=O)O` (racemic), in [1], the displacement potency (concentration) worked out at 480 nM. For the same compound, the Activity in the data set with Mus musculus [2] is on record as 12%.

Turning to `CC(C)C[C@H](CN)CC(=O)O` [PREGABALIN], the Activity entry with Mus musculus [8] is “Toxic”; in the data set with Mus musculus [11], “Toxic”; in the data set on Mus musculus [2] it was 98%. Besides, the AUC with Rattus norvegicus [9] was 18 to 27 g·h; in the data set with Rattus norvegicus [10] it was 5.8 to 17 g·h; in the data set on Mus musculus [5], 18900 ng·h/mL. The clearance in data set [3] came to 7.77 mL/min/kg. Besides, the bioavailability in data set [4] was 88%. Besides, the displacement potency (concentration) in data set [1] came out at 39 nM. The compound also registered a Cmax in data set [6] of 1340 ng/mL. Moreover, the half-life in data set [7] is 2.54 h.

As to `COCC(C)C(CN)CC(=O)O` (centres undefined), the displacement potency (concentration) in data set [1] stood at 160 nM. Moreover, in the data set with Mus musculus [2], the Activity amounted to 10%.

As to `CS[C@@H](C)C[C@H](CN)CC(=O)O`, the Activity result in the data set with Mus musculus [8] is given as “Toxic”; in the data set with Mus musculus [11], “Non-Toxic”; in the data set on Mus musculus [2], 80%. The AUC in the data set with Rattus norvegicus [9] turned out to be 10 g·h; in the data set on Mus musculus [5] it was 12500 ng·h/mL; in the data set with Rattus norvegicus [12], 18 g·h. For the same compound, in data set [3], the clearance was determined as 17.6 mL/min/kg. The compound further displayed a bioavailability in data set [4] of 100%. For the same compound, the displacement potency (concentration) in data set [1] was determined as 48 nM. In addition, the Cmax in data set [6] was 5190 ng/mL. The compound further had a half-life in data set [7] of 2.4 h.

As to `CSCC(C)C(CN)CC(=O)O` (centres undefined), in data set [1], the displacement potency (concentration) worked out at 150 nM. Also, the Activity in the data set on Mus musculus [2] was found to be 2%.

For the compound `CSCC(CN)CC(=O)O` (racemic), the displacement potency (concentration) in data set [1] came to 1000 nM. Further, the Activity in the data set on Mus musculus [2] is on record as 9%.

On to `CCS[C@@H](C)C[C@H](CN)CC(=O)O`, for which the Activity entry is listed as “Toxic” in the data set with Mus musculus [8], “Toxic” in the data set on Mus musculus [11] and 90% with Mus musculus [2]. Besides, the AUC is 19 g·h in the data set on Rattus norvegicus [9], 6.3 g·h in the data set on Rattus norvegicus [10] and 8140 ng·h/mL with Mus musculus [5]. This compound gave a clearance in data set [3] of 5.78 mL/min/kg. This compound yielded a bioavailability in [4] of 28%. Besides, in data set [1], the displacement potency (concentration) came out at 20 nM. This compound also showed a Cmax in data set [6] of 5610 ng/mL. The compound also showed a half-life in data set [7] of 2.09 h.

Regarding `CCOC(C)CC(CN)CC(=O)O` (centres undefined), the displacement potency (concentration) in data set [1] came out at 970 nM. In the data set with Mus musculus [2], the Activity amounted to 22%.

In turn, `CS[C@@H](C)C[C@@H](CN)CC(=O)O` gave a clearance in data set [3] of 23.8 mL/min/kg. The compound further had a bioavailability in data set [4] of 45%. Further, the displacement potency (concentration) in data set [1] worked out at 290 nM. Moreover, the AUC with Mus musculus [5] was 3020 ng·h/mL. This compound also displayed a Cmax in data set [6] of 1610 ng/mL. The Activity with Mus musculus [2] is on record as 0%. Moreover, the half-life in data set [7] was 5.8 h.

Compound `CS[C@H](C)C[C@H](CN)CC(=O)O` registered a clearance in [3] of 17.5 mL/min/kg. Moreover, the bioavailability in data set [4] turned out to be 100%. Also, the displacement potency (concentration) in [1] was found to be 620 nM. The compound also showed an AUC with Mus musculus [5] of 9980 ng·h/mL. This compound also registered a Cmax in [6] of 6220 ng/mL. For the same compound, the Activity in the data set with Mus musculus [2] was 4%. The compound also gave a half-life in data set [7] of 4.52 h.

On to `CCS[C@H](C)C[C@H](CN)CC(=O)O`, for which the displacement potency (concentration) in data set [1] was determined as 290 nM. Moreover, in the data set with Mus musculus [2], the Activity was 3%.

Usually bioavailability stands for dose-corrected exposure relative to a reference, in per cent. Lower therefore signals poor availability. The term Cmax denotes the highest concentration seen after dosing. The term half-life denotes how long it takes for the measured level to halve. A high value points to slow decline.
